Measurements reported in paper PMC4767442 (Oncotarget, 2015).

Legend:
[1] = system: cancer cell lines (HL-60, MCF-7 and HCT116); test: MTT assay, cancer cell lines as a group; assay type: cell-based; settings: Homo sapiens, HL-60, MCF-7, HCT116, 72 h/37°C, read-out: IC50 against cancer cells (range over cell lines)
Procedure: (§1) The MCF-7 human breast adenocarcinoma cell line was purchased from the European Collection of Cell Cultures (U.K.). The HL-60 human promyelocytic leukemia cell line, HCT116 human colorectal carcinoma cell line, H9c2 rat heart-derived myoblast cell line and 3T3 mouse embryo fibroblast line, were obtained from the American Type Culture Collection (VA, U.S.A.). Cells were cultured in Dulbecco's modified Eagle's medium (DMEM, Lonza, Switzerland) with or without (for MCF-7 cells only) phenol red, supplemented with 10% heat-inactivated fetal bovine serum (FBS; Lonza, Switzerland), 1% penicillin/streptomycin solution (Lonza, Switzerland) and 10 mM HEPES buffer (pH 7.0-7.6; Sigma-Aldrich, Germany). The HL-60 cell line was maintained in RPMI medium (Sigma-Aldrich, Germany) supplemented with 10% heat-inactivated FBS and 1% penicillin/streptomycin solution. All cell lines were cultured in 75 cm^2 tissue culture flasks (Switzerland) at 37°C in a humidified atmosphere of 5% CO2. Sub-confluent cells or, in the case of HL-60 cells, a cell suspension, were sub-cultured every 3-4 days.
(§2) Cells were seeded in 96-well plates for 24 h/37°C at a density of 5,000 (MCF-7), 10,000 (HL-60), 2,000 (HCT116) and 10,000 (3T3 and H9c2) cells/well. For 3T3 and H9c2 cells, the medium was changed to serum- and pyruvate-free DMEM 24 h prior to the experiments. Anti-proliferative and cytotoxicity effects of the compounds were studied at different concentrations after incubations for 72 h/37°C. Viabilities of cells were determined using MTT assays (Sigma-Aldrich, Germany) according to the manufacturer's instructions on a Tecan Infinite 200M plate reader (Tecan, Austria). The proliferation/viability of treated groups was expressed as a percentage of the untreated controls (100%).

[2] = Post-preparative stability in the autosampler at 10°C; assay type: physicochemical; settings: for decomposition on storage (in words): 24 h storage in the autosampler at 10°C; for Post-preparative stability: autosampler 10°C, 24 h
Procedure: (§3) The UHPLC-MS/MS methods for quantitative assays were validated with respect to selectivity, linearity, precision, accuracy, stability, recovery, matrix effects and dilution integrity (see […]
Supplementary Table 1-3). […]
(§4) Stability was assessed at low, medium and high concentration levels. Long -term stability was assessed for plasma samples at -80°C over a period of 7 days (three aliquots per level; Supplementary Table 3). […]

[3] = system: cellular labile iron pools; test: Fluorimetric calcein-AM assay of intracellular iron chelation; assay type: cell-based; settings: 10 μmol·L^−1
Procedure: Iron chelation efficiency of the compounds at a concentration of 10 μmol·L^−1 was determined via 3 methods: (1) the calcein assay; (2) the ability of the ligands to induce ^59Fe mobilization from cells prelabeled with ^59Fe-transferrin; and (3) the efficacy of these agents to inhibit the uptake of ^59Fe from ^59Fe-transferrin [22, 38–40].
The fluorimetric calcein-AM assay was performed by established methods, as described previously. The Fe chelation efficiency of the metabolites in cells was expressed as a percentage of that of the parent chelator, Dp44mT or DpC (100%). For studies assessing the ability of these agents to induce ^59Fe mobilization and inhibit ^59Fe uptake from ^59Fe-transferrin by cells, human transferrin (Sigma-Aldrich, Germany) was labeled with ^59Fe (PerkinElmer, MA, USA) to generate ^59Fe-transferrin at a final specific activity of 500 pCi/pmol Fe, as previously described. The unbound ^59Fe was removed by exhaustive vacuum dialysis against a large excess of 0.15 M NaCl buffered to pH 7.4 with 1.4% NaHCO3 by standard methods.

[4] = system: H9c2 rat heart-derived myoblast cell line; test: MTT proliferation/viability assay, H9c2; assay type: cell-based; settings: 72 h/37°C, mean ± S.D., serum- and pyruvate-free DMEM
Procedure: as §1, §2

[5] = system: 3T3 mouse embryo fibroblast line; test: MTT proliferation/viability assay, 3T3; assay type: cell-based; settings: 72 h/37°C, mean ± S.D., serum- and pyruvate-free DMEM
Procedure: as §1, §2

[6] = Long-term stability in plasma samples at -80°C; assay type: in vitro ADME, rat; settings: for Long-term stability: plasma, -80°C, 7 days; for decomposition on storage (in words): up to 7 days stored at −80°C
Procedure: as §3
Linearity was examined over the concentration ranges described in Supplementary Table 1 using a weighted (1/x 2) linear regression in GraphPad Prism 6 (v. 6.04, GraphPad Software […]
as §4

[7] = system: H9c2 heart-derived myoblasts; test: In-vitro metabolism of the drugs in H9c2 cells (HPLC-MS); assay type: in vitro ADME, rat; settings: H9c2, 10 μmol·L^−1, 12 h, 37°C
Procedure: (§5) Breast cancer cells (MCF-7) and H9c2 heart-derived myoblasts were seeded in 100-mm Petri dishes (1,000,000 cells/dish) for 24 h/37°C. Freshly prepared stock solutions of Dp44mT and DpC in DMSO (Sigma-Aldrich, Germany) were diluted in culture medium to the required working concentration.
(§6) The cells were incubated for 12 h (37°C) with either Dp44mT or DpC at a concentration of 10 μmol·L^−1. After this incubation, the cells were harvested, washed twice with ice-cold PBS buffer, centrifuged (790 x g) and precipitated with acetonitrile (200 μL/10^6 cells) prior to the analysis. The overlaying medium was also analyzed to search for possible metabolites. […] All samples were analyzed using HPLC-MS as described below in the Section: HPLC-MS method to identify metabolites of the drugs.
(§7) To search for the metabolites, plasma was precipitated with methanol or acetonitrile (plasma/solvent ratio – 1:3, v/v), treated using solid phase extraction (SPE; Discovery DSC-PH, Supelco, PA, U.S.A.), or liquid-liquid extraction with various solvents (ethyl acetate, toluene, dichloromethane). […] These samples were then analyzed using HPLC-MS with ion trap mass analyzer implementing the settings described previously with minor modifications (for details of the analyses see Supplementary Material, part 2.1). […]

[8] = system: MCF-7 cells; test: In-vitro metabolism of the drugs in MCF-7 cells (HPLC-MS); assay type: in vitro ADME, human; settings: MCF-7, 10 μmol·L^−1, 12 h, 37°C
Procedure: as §5, §6, §7

[9] = system: HL-60 human promyelocytic leukemia cell line; test: MTT proliferation/viability assay, HL-60; assay type: cell-based; settings: 72 h/37°C, mean ± S.D.
Procedure: as §1, §2

[10] = system: HCT116 human colorectal carcinoma cell line; test: MTT proliferation/viability assay, HCT116; assay type: cell-based; settings: HCT-116, 72 h/37°C, mean ± S.D.
Procedure: as §1, §2

[11] = high concentration level (2.105-3.115 µmol·L-1)
[12] = low concentration level (0.035-0.156 µmol·L-1)
[13] = medium concentration level (0.702-1.558 µmol·L-1)

IC50 [1] | decomposition on storage (in words) [2] | Post-preparative stability [2, 11] | Post-preparative stability [2, 12] | Post-preparative stability [2, 13] | Long-term stability [6, 11] | Long-term stability [6, 12] | Long-term stability [6, 13] | decomposition on storage (in words) [6] | metabolism in heart-derived myoblasts [7] | metabolism in cancer cells [8] | IC50 [9] | IC50 [10] | SMILES | intracellular Fe chelation efficacy (in words) [3] | IC50 [4] | IC50 [5]
2 to 9 nM | No significant decomposition | 98.90% | 93.70% | 95.92% | 94.93% | 112.56% | 108.06% | No significant decomposition | do not undergo significant metabolism | do not undergo significant metabolism | 2 nM | 6 ± 1 nM | CN(C)C(=S)NN=C(c1ccccn1)c1ccccn1 [Dp44mT, di(2-pyridyl)ketone 4,4-dimethyl-3-thiosemicarbazone] | high intracellular chelation efficacy | 124 ± 49 nM | 157 ± 51 nM
3 to 5 nM | No significant decomposition | 107.34% | 97.48% | 95.68% | 112.39% | 85.12% | 87.76% | No significant decomposition | do not undergo significant metabolism | do not undergo significant metabolism | 3 ± 1 nM | 5 ± 1 nM | CN(C(=S)NN=C(c1ccccn1)c1ccccn1)C1CCCCC1 [DpC, di(2-pyridyl)ketone 4-cyclohexyl-4-methyl-3-thiosemicarbazone] | comparable to Dp44mT | 85 ± 13 nM | 412 ± 177 nM
